Data published in patent publication US4250087A, “Carboxyl terminus analogs of β-endorphin” (Hoffmann-La Roche Inc., priority 1979, dated 1981).

Key:
[1] = molecular target: opiate receptor; assay: Opiate receptor binding assay, rat brain membrane fraction (Example 2); conditions: for IC50: 50% inhibiting concentration, [3H-Tyr27]-βh-EP as primary ligand; for Relative Potency: receptor binding, βh-Endorphin = 100
Description: The opiate receptor binding assay was performed by the method of Pasternak et al., Mol. Pharmacol. 11, 340 (1975) with modifications using a membrane fraction from rat brain homogenate. [^3 H-Tyr^27 ]-βh -EP was used as primary ligand and synthetic βh -EP as standard competing ligand.

[2] = system: guinea pig ileum preparations; assay: Opiate activity: depression of electrically-stimulated contractions of guinea pig ileum preparations; format: cell-based; conditions: for IC50: guinea pig ileum assay; for Relative Potency: guinea pig ileum, βh-Endorphin = 100
Description: (§1) Opiate activity was measured from the depression of electrically-stimulatedcontractions of guinea pig ileum preparations, see Kosterlitz et al., J. Pharmacol. 39, 398 (1970) and Doneen et al., Biochem. Biophys. Res. Commun. 74, 656 (1977). For analgesic assay, male ICR mice weighing 25-30 g (Simonsen Laboratories, Gilroy, CA) were used. Analgesic activity was assessed by the tail-flick method of D'Amour and Smith as described by Li et al., Biochem. Biophys. Res. Commun. 85, 795 (1978).

[3] = Analgesic assay, tail-flick method, intracerebroventricular injection; format: in vivo, male ICR mice; conditions: for Relative Potency: analgesic potency, βh-Endorphin = 100 (run in the same group); for AD50: intracerebroventricular injection, mice, tail-flick, 95% confidence limit in parentheses
Description: as §1
^a AD50 in nmole (95% confidence limit) by
intracerebroventricular injection.

[4] = molecular target: rat brain receptor (opiate); assay: Rat brain binding assay with tritiated βh-EP as primary ligand (Example 4); conditions: for IC50: 50% inhibiting concentration; for Relative Potency: receptor binding, βh-Endorphin = 100
Description: Opiate activity was measured in the rat brain binding assay in which tritiated βh -EP is used as primary ligand (Ferrara et al., Biochem. Biophys. Res. Comm. 89, 786 [1979]).

[5] = cited from earlier work
[6] = system: guinea pig ileum preparations; conditions: βh-EP = 100; cited from earlier work
[7] = βh-EP = 100; cited from earlier work
[8] = tritiated βh-EP as primary ligand

“[Gly^31 ]-βh -endorphinylglycine [[Gly^31]-βh -EP--Gly--OH]” showed an IC50 [1] of 0.49 nM, a Relative Potency [1] of 153 and an IC50 [2] of 97 nM. The Relative Potency [2] was 132, the “Relative Potency” value [3] was 217 and the AD50 [3] was 0.043 (0.031-0.057) nmole.

With “βh -Endorphin: synthetic βh -EP as standard competing ligand [reference compound]” the IC50 [1] was 0.75 nM, the Relative Potency [1] was 100 and the IC50 [4, 8] was 0.65 nM. The “Relative Potency” value [4] was 100, the IC50 [2] was 128 nM and the Relative Potency [2] was 100. The “Relative Potency” value [3] was 100.

With “[Gly^31 ]-βh -endorphinamide [[Gly^31]-βh -EP--NH2]” the IC50 [1] was 0.3 nM, the “potency in the receptor assay relative to the parent peptide (in words)” value ([1]; Table 4) was “almost three times more potent” and the Relative Potency [1] was 250. For the same compound, the IC50 [2] was 64 nM, the Relative Potency [2] was 200 and the “Relative Potency” value [3] was 225. The AD50 [3] was 0.016 (0.008-0.032) nmole.

With “[Gln^8, Gly^31 ]-βh -EP-Gly-Gly-NH2 [[Gln^8,Gly^31]-βh -Gly--Gly--NH2]” the “potency in the binding assay relative to βh-EP (in words)” value [4] was “nine times that of βh -EP”, the IC50 [4, 8] was 0.07 nM and the “Relative Potency” value [4] was 929.

With “[Gly^31 ]-βh -EP-Gly-NH2 [[Gly^31]-βh -EP--Gly--NH2]” the “activity in rat brain binding assay (in words)” value [4] was “a further increase in activity”, the IC50 [4, 8] was 0.19 nM and the “Relative Potency” value [4] was 342.

In the case of “β-endorphin: the structure corresponding to positions 61-91 of β-lipotropin, namely β-endorphin (YGGFMTSEKSQTPLVTLFKNAIIKNAYKKGE; Beta-endorphin; UniProt P01189 237-267, looked up)”, the “analgesic activity (in words)” value ([5]; intravenous route) is listed as “potent analgesic activity by the intravenous route”.

For [Gly^31 ]-βh -EP, the IC50 [1] was 0.59 nM, the Relative Potency [1] was 127 and the IC50 [2] was 76 nM. For the same compound, the Relative Potency [2] was 168, the “Relative Potency” value [3] was 83 and the AD50 [3] was 0.077 (0.038-0.17) nmole.

In the case of “[CH3 (CH2)4 NH2^31 ]-βh -EP [[CH(CH2)4 NH2^31]-βh -EP]”, the IC50 [4, 8] is reported as 0.33 nM and the “Relative Potency” value [4] is reported as 197.

With CSCC[C@H](NC(=O)[C@H](Cc1ccccc1)NC(=O)CNC(=O)CNC(=O)[C@@H](N)Cc1ccc(O)cc1)C(=O)O [methionine-enkephalin, reference compound] the “activity in rat brain binding assay (in words)” value [4] was “low activity” and the “activity in rat brain binding assay, relative to βh-EP” value [4, 8] was 5 % of βh -EP.

In the case of [Phe^27, Gly^31 ]-βh -EP, the “analgesic potency relative to the parent” value ([5]; intravenous assay route) is given as “about 1.48 times that of the parent”, the “relative potency previously obtained, guinea pig ileum assay” value [6] is given as 128 and the “relative potency previously obtained, in vivo assay” value [7] is given as 119.

In the case of “[Gly^31 ]-βh -EP-Gly-Gly-NH2 [[Gly^31]-βh -EP--Gly--Gly--NH2]”, the “potency in the binding assay relative to βh-EP (in words)” value [4] is reported as “over four times the potency of βh -EP”, the IC50 [4, 8] is reported as 0.15 nM and the “Relative Potency” value [4] is reported as 433.
